Test results as given in patent US20220089598A1, “INHIBITORS OF HUMAN IMMUNODEFICIENCY VIRUS REPLICATION” (VIIV HEALTHCARE UK (No. 5) LIMITED, priority 2018, published 2022).

Columns and labels:
[1] = system: recombinant NL4-3 virus (Renilla luciferase) in MT-2 cells; test: HIV cell culture assay (antiviral activity, luciferase readout); type: cell-based; conditions: Renilla, NL43
Method: HIV cell culture assay—MT-2 cells, 293T cells and the proviral DNA clone of NL4-3 virus were obtained from the NIH AIDS Research and Reference Reagent Program. MT-2 cells were propagated in RPMI 1640 media supplemented with 10% heat inactivated fetal bovine serum (FBS), 100 μg/ml penicillin G and up to 100 units/mL streptomycin. The 293T cells were propagated in DMEM media supplemented with 10% heat inactivated FBS, 100 μg/mL penicillin G and 100 μg/mL streptomycin. A recombinant NL4-3 proviral clone, in which a section of the nef gene was replaced with the Renilla luciferase gene, was used to make the reference virus used in these studies. The recombinant virus was prepared through transfection of the recombinant NL4-3 proviral clone into 293T cells using Transit-293 Transfection Reagent from Mirus Bio LLC (Madison, Wis.). Supernatent was harvested after 2-3 days and the amount of virus present was titered in MT-2 cells using luciferase enzyme activity as a marker by measuring luciferase enzyme activity. Luciferase was quantitated using the EnduRen Live Cell Substrate from Promega (Madison, Wis.). Antiviral activities of compounds toward the recombinant virus were quantified by measuring luciferase activity in MT-2 cells infected for 4-5 days with the recombinant virus in the presence of serial dilutions of the compound.
The 50% effective concentration (EC50) was calculated by using the exponential form of the median effect equation where (Fa)=1/[1+(ED50/drug conc.)m] (Johnson V A, Byington R T. Infectivity Assay. In Techniques in HIV Research. ed. Aldovini A, Walker B D. 71-76. New York: Stockton Press. 1990).

[2] = Compound cytotoxicity, XTT-based colorimetric assay; type: cell-based; conditions: human; uninfected MT2 cells, day 4, XTT assay
Method: Compound cytotoxicity and the corresponding CC50 values were determined using the same protocol as described in the antiviral assay except that uninfected cells were used. Cytotoxicity was assessed on day 4 in uninfected MT2 cells by using a XTT (2,3-bis[2-Methoxy-4-nitro-5-sulfophenyl]-2H-tetrazolium-5-carboxyanilide inner salt)-based colorimetric assay (Sigma-Aldrich, St Louis, Mo.).

Row | SMILES | EC50 [1] | CC50 at 4 day [2]
1 | Cn1nc(NS(C)(=O)=O)c2c(Cl)ccc(-n3c([C@H](Cc4cc(F)cc(F)c4)NC(=O)Cn4nc(C(F)F)c5c4C(F)(F)[C@@H]4C[C@H]54)nc4nc(-c5ccc(F)c(Cl)c5F)ccc4c3=O)c21 (atropisomer, axis not shown; (P)) [Example 22, N—((S)-1-((3P)-3-(4-chloro-1-methyl-3-(methylsulfonamido)-1H-indazol-7-yl)-7-(3-chloro-2,4-difluorophenyl)-4-oxo-3,4-dihydropyrido[2,3-d]pyrimidin-2-yl)-2-(3,5-difluorophenyl)ethyl)-2-((3bS,4aR)-3-(difluoromethyl)-5,5-difluoro-3b,4,4a,5-tetrahydro-1H-cyclopropa[3,4]cyclopenta[1,2-c]pyrazol-1-yl)acetamide] | 0.1 nM | > 100 nM
2 | Cn1nc(NS(C)(=O)=O)c2c(Cl)ccc(-n3c([C@H](Cc4cc(F)cc(F)c4)NC(=O)Cn4nc(C(F)F)c5c4C(F)(F)[C@@H]4C[C@H]54)nc4nc(-c5cccc(S(C)(=O)=O)c5)ccc4c3=O)c21 (atropisomer, axis not shown; (P)) [Example 23, N—((S)-1-((3P)-3-(4-chloro-1-methyl-3-(methylsulfonamido)-1H-indazol-7-yl)-7-(3-(methylsulfonyl)phenyl)-4-oxo-3,4-dihydropyrido[2,3-d]pyrimidin-2-yl)-2-(3,5-difluorophenyl)ethyl)-2-((3bS,4aR)-3-(difluoromethyl)-5,5-difluoro-3b,4,4a,5-tetrahydro-1H-cyclopropa[3,4]cyclopenta[1,2-c]pyrazol-1-yl)acetamide] | 0.065 nM | > 100 nM
3 | Cn1nc(NS(C)(=O)=O)c2c(Cl)ccc(-n3c([C@H](Cc4cc(F)cc(F)c4)NC(=O)Cn4nc(C(F)F)c5c4C(F)(F)[C@@H]4C[C@H]54)nc4nc(-c5ccc(F)c(F)c5F)ccc4c3=O)c21 (atropisomer, axis not shown; (P)) [Example 15, N—((S)-1-((3P)-3-(4-chloro-1-methyl-3-(methylsulfonamido)-1H-indazol-7-yl)-4-oxo-7-(2,3,4-trifluorophenyl)-3,4-dihydropyrido[2,3-d]pyrimidin-2-yl)-2-(3,5-difluorophenyl)ethyl)-2-((3bS,4aR)-3-(difluoromethyl)-5,5-difluoro-3b,4,4a,5-tetrahydro-1H-cyclopropa[3,4]cyclopenta[1,2-c]pyrazol-1-yl)acetamide] | 0.035 nM | > 100 nM
4 | Cn1nc(NS(C)(=O)=O)c2c(Cl)ccc(-n3c([C@H](Cc4cc(F)cc(F)c4)NC(=O)Cn4nc(C(F)F)c5c4C(F)(F)[C@@H]4C[C@H]54)nc4nc(-c5ccc(C(F)(F)F)cc5)ccc4c3=O)c21 (atropisomer, axis not shown; (P)) [Example 14, N—((S)-1-((3P)-3-(4-chloro-1-methyl-3-(methylsulfonamido)-1H-indazol-7-yl)-4-oxo-7-(4-(trifluoromethyl)phenyl)-3,4-dihydropyrido[2,3-d]pyrimidin-2-yl)-2-(3,5-difluorophenyl)ethyl)-2-((3bS,4aR)-3-(difluoromethyl)-5,5-difluoro-3b,4,4a,5-tetrahydro-1H-cyclopropa[3,4]cyclopenta[1,2-c]pyrazol-1-yl)acetamide] | 0.084 nM | > 100 nM
5 | Cn1nc(NS(C)(=O)=O)c2c(Cl)ccc(-n3c([C@H](Cc4cc(F)cc(F)c4)NC(=O)Cn4nc(C(F)F)c5c4C(F)(F)[C@@H]4C[C@H]54)nc4nc(-c5ccc(F)cc5)ccc4c3=O)c21 (atropisomer, axis not shown; (P)) [Example 18, N—((S)-1-((3P)-3-(4-chloro-1-methyl-3-(methylsulfonamido)-1H-indazol-7-yl)-7-(4-fluorophenyl)-4-oxo-3,4-dihydropyrido[2,3-d]pyrimidin-2-yl)-2-(3,5-difluorophenyl)ethyl)-2-((3bS,4aR)-3-(difluoromethyl)-5,5-difluoro-3b,4,4a,5-tetrahydro-1H-cyclopropa[3,4]cyclopenta[1,2-c]pyrazol-1-yl)acetamide] | 0.036 nM | > 100 nM
6 | CS(=O)(=O)Nc1nn(CC(F)F)c2c(-n3c([C@H](Cc4cc(F)cc(F)c4)NC(=O)Cn4ccc(C5CC5)n4)nc4nc(-c5ccccc5F)ccc4c3=O)ccc(Cl)c12 (atropisomer, axis not shown; (P)) [Example 33, (S)—N-(1-((3P)-3-(4-chloro-1-(2,2-difluoroethyl)-3-(methylsulfonamido)-1H-indazol-7-yl)-7-(2-fluorophenyl)-4-oxo-3,4-dihydropyrido[2,3-d]pyrimidin-2-yl)-2-(3,5-difluorophenyl)ethyl)-2-(3-cyclopropyl-1H-pyrazol-1-yl)acetamide] | 0.15 nM | > 500 nM
7 | CS(=O)(=O)Nc1nn(CC(F)(F)F)c2c(-n3c([C@H](Cc4cc(F)cc(F)c4)NC(=O)Cn4ccc(C5CC5)n4)nc4nc(-c5ccccc5F)ccc4c3=O)ccc(Cl)c12 (atropisomer, axis not shown; (P)) [Example 36, (S)—N-(1-((3P)-3-(4-chloro-3-(methylsulfonamido)-1-(2,2,2-trifluoroethyl)-1H-indazol-7-yl)-7-(2-fluorophenyl)-4-oxo-3,4-dihydropyrido[2,3-d]pyrimidin-2-yl)-2-(3,5-difluorophenyl)ethyl)-2-(3-cyclopropyl-1H-pyrazol-1-yl)acetamide] | 0.16 nM | > 500 nM
8 | Cn1nc(NS(C)(=O)=O)c2c(Cl)ccc(-n3c([C@H](Cc4cc(F)cc(F)c4)NC(=O)Cn4nc(C(F)F)c5c4C(F)(F)[C@@H]4C[C@H]54)nc4nc(-c5ccc(F)c(CO)c5)ccc4c3=O)c21 (atropisomer, axis not shown; (P)) [Example 5, N—((S)-1-((3P)-3-(4-chloro-1-methyl-3-(methylsulfonamido)-1H-indazol-7-yl)-7-(4-fluoro-3-(hydroxymethyl)phenyl)-4-oxo-3,4-dihydropyrido[2,3-d]pyrimidin-2-yl)-2-(3,5-difluorophenyl)ethyl)-2-((3bS,4aR)-3-(difluoromethyl)-5,5-difluoro-3b,4,4a,5-tetrahydro-1H-cyclopropa[3,4]cyclopenta[1,2-c]pyrazol-1-yl)acetamide] | 0.16 nM | > 500 nM
9 | Cn1nc(NS(C)(=O)=O)c2c(Cl)ccc(-n3c([C@H](Cc4cc(F)cc(F)c4)NC(=O)Cn4nc(C(F)F)c5c4C(F)(F)[C@@H]4C[C@H]54)nc4nc(-c5ccc(Cl)cc5F)ccc4c3=O)c21 (atropisomer, axis not shown; (P)) [Example 8, N—((S)-1-((3P)-3-(4-chloro-1-methyl-3-(methylsulfonamido)-1H-indazol-7-yl)-7-(4-chloro-2-fluorophenyl)-4-oxo-3,4-dihydropyrido[2,3-d]pyrimidin-2-yl)-2-(3,5-difluorophenyl)ethyl)-2-((3bS,4aR)-3-(difluoromethyl)-5,5-difluoro-3b,4,4a,5-tetrahydro-1H-cyclopropa[3,4]cyclopenta[1,2-c]pyrazol-1-yl)acetamide] | 0.067 nM | > 20000 nM
10 | Cn1nc(NS(C)(=O)=O)c2c(Cl)ccc(-n3c([C@H](Cc4cc(F)cc(F)c4)NC(=O)Cn4ccc(C5CC5)n4)nc4nc(-c5ccccc5F)ccc4c3=O)c21 (atropisomer, axis not shown; (P)) [Example 34, (S)—N-(1-((3P)-3-(4-chloro-1-methyl-3-(methylsulfonamido)-1H-indazol-7-yl)-7-(2-fluorophenyl)-4-oxo-3,4-dihydropyrido[2,3-d]pyrimidin-2-yl)-2-(3,5-difluorophenyl)ethyl)-2-(3-cyclopropyl-1H-pyrazol-1-yl)acetamide] | 0.089 nM | > 500 nM
11 | Cn1nc(NS(C)(=O)=O)c2c(Cl)ccc(-n3c([C@H](Cc4cc(F)cc(F)c4)NC(=O)Cn4nc(C(F)F)c5c4C(F)(F)[C@@H]4C[C@H]54)nc4nc(-c5ccccc5F)ccc4c3=O)c21 (atropisomer, axis not shown; (P)) [Example 1, N—((S)-1-((3P)-3-(4-chloro-1-methyl-3-(methylsulfonamido)-1H-indazol-7-yl)-7-(2-fluorophenyl)-4-oxo-3,4-dihydropyrido[2,3-d]pyrimidin-2-yl)-2-(3,5-difluorophenyl)ethyl)-2-((3bS,4aR)-3-(difluoromethyl)-5,5-difluoro-3b,4,4a,5-tetrahydro-1H-cyclopropa[3,4]cyclopenta[1,2-c]pyrazol-1-yl)acetamide] | 0.06 nM | > 1000 nM
